The results in this text go back to PMC10349806 (Nature Communications, 2023).

In one experiment the target is T1, PfCRT variant E278A (Plasmodium falciparum, UniProt Q9N623, A220S/E278A/I356T/K76T/M74I/N326S/N75E/Q271E/R371I).
T1 sequence (Q9N623 1-424 M74I/N75E/K76T/A220S/Q271E/E278A/N326S/I356T/R371I): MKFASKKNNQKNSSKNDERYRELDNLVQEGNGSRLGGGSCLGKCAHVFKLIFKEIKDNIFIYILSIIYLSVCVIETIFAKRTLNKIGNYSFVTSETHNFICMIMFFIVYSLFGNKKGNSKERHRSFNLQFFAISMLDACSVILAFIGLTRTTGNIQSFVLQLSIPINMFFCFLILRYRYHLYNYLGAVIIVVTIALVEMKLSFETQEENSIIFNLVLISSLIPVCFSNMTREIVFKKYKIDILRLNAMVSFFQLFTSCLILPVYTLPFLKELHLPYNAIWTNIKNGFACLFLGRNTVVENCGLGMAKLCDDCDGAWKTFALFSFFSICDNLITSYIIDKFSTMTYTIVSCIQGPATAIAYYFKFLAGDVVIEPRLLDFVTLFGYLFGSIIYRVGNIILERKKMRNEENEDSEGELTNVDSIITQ
Briefly: CQ uptake assay, oocytes expressing E278A. The class given is cell-based. The method, then:
(§1) Site-directed mutagenesis of PfCRT^Dd2 was performed as described using the megaprimer method with overlap extension[21],[54]. The primer pairs used are listed in Supplementary Table 6. Please note that a codon-optimized and oocyte-adapted version of PfCRT^Dd2 was used[22] (Supplementary Fig. 16). The resulting DNA fragment was cloned into the SP64T expression vector and verified by sequencing.
(§2) Oocytes were obtained as described previously. Briefly, adult (>2 years old) female X. laevis frogs (NASCO) were anesthetized in a cooled solution of ethyl 3-amino benzoate methanesulfonate (0.1%, w/v), followed by a surgical removal of parts of the ovary. The ovary lobes were carefully dissected and small pieces of oocytes were incubated in Ca^2+-free ND96 buffer (96 mM NaCl, 2 mM KCl, 1 mM MgCl2 buffered with 5 mM HEPES/NaOH, pH 7.5) supplemented with collagenase D (0.1%, w/v; Roche), BSA (0.5%, w/v), and 9 mm Na2HPO4 at 18 °C for 14-16 h while gentle shaking. After incubation, the oocytes were carefully washed several times with ND96 buffer (96 mM NaCl, 2 mM KCl, 1.8 mM CaCl2, 1 mM MgCl2 buffered with 5 mM HEPES/NaOH, pH 7.5) supplemented with 100 mg l^−1 gentamycin). Defolliculated and healthy-looking stage V-VI oocytes were manually selected for RNA microinjection. The RNA was generated as following: The codon-optimized sequences of PfCRT variants were cloned into the pSP64T expression vector. After vector linearization using the restriction endonucleases BamHI or SalI (New England Biolabs), transcription was performed using the in vitro SP6 mMessage mMachine Kit (Ambion)[34]. The obtained RNA was kept at −80 °C and diluted with nuclease-free water to a concentration of 0.6 μg μl^−1. Precision-bore glass capillary tubes (3.5-inch glass capillaries; Drummond Scientific Co.) were pulled on a vertical puller (P-87 Flaming/Brown micropipette puller, Sutter Instrument Co.), graduated, and placed on a microinjector (Nanoject II Auto-Nanoliter Injector, Drummond Scientific Co.). 50 nl of nuclease-free water alone (control oocytes) or 50 nl of 0.6 μg μl^−1 RNA were injected under stereomicroscopic control. Injected oocytes were incubated for 46–72 h at 18 °C with twice-daily buffer changes before usage in experiments.
Drug uptake assays were performed as described previously[21],[22],[24],[34]. […] The direction of radio-labeled drug transport is here from the mostly acidic extracellular solution (pH 4.5 or 6.0, as indicated) into the oocyte cytosol (pH ∼ 7.2), which corresponds to the efflux of drug from the acidic digestive vacuole (pH 5.2) into the parasite cytoplasm (pH 7.2). The topology of PfCRT in the oolemma is such that both the N- and C-terminus face the extracellular milieu[3],[22]. In the parasite, the N- and C-terminus face the lumen of the digestive vacuole. CQ uptake kinetics were performed by incubating oocytes in ND96 buffer adjusted to a pH of 4.5, 5.0, 5.5, or 6.0 and supplemented with 50 nM [^3H]CQ and one of 7 different CQ concentrations (10 µM, 50 µM, 100 µM, 200 µM, 300 µM, 400 µM, 500 µM CQ). The reaction was stopped at the 60 min time point, which is in the linear uptake range[22],[34] (Supplementary Fig. 17). […] The radioactivity of each sample was measured using a liquid scintillation analyzer Tri-Carb 4910 TR (PerkinElmer). Oocytes that were injected with water instead of RNA were analyzed in parallel, representing the uptake of a drug by diffusion and/or endogenous permeation pathways. […]

A further experiment concerns PfCRT variant E207S. Description: CQ uptake assay, oocytes expressing E207S. The class given is cell-based, Plasmodium falciparum. As for the experimental part: as §1, §2
Drug uptake assays were performed as described previously[21],[22],[24],[34]. […] The direction of radio-labeled drug transport is here from the mostly acidic extracellular solution (pH 4.5 or 6.0, as indicated) into the oocyte cytosol (pH ∼ 7.2), which corresponds to the efflux of drug from the acidic digestive vacuole (pH 5.2) into the parasite cytoplasm (pH 7.2). The topology of PfCRT in the oolemma is such that both the N- and C-terminus face the extracellular milieu[3],[22]. In the parasite, the N- and C-terminus face the lumen of the digestive vacuole. CQ uptake kinetics were performed by incubating oocytes in ND96 buffer adjusted to a pH of 4.5, 5.0, 5.5, or 6.0 and supplemented with 50 nM [^3H]CQ and one of 7 different CQ concentrations (10 µM, 50 µM, 100 µM, 200 µM, 300 µM, 400 µM, 500 µM CQ). The reaction was stopped at the 60 min time point, which is in the linear uptake range[22],[34] (Supplementary Fig. 17). For determination of the amount of drug uptake for each oocyte, the reaction medium was removed and the oocytes were washed three times with 2 ml of ice-cold ND96 buffer. Each oocyte was individually transferred to a scintillation vial containing 5% sodium dodecyl sulfate (200 μl) for lysis. The radioactivity of each sample was measured using a liquid scintillation analyzer Tri-Carb 4910 TR (PerkinElmer). Oocytes that were injected with water instead of RNA were analyzed in parallel, representing the uptake of a drug by diffusion and/or endogenous permeation pathways. The resulting value represents the “background“ level of drug accumulation in oocytes (in-depth discussion in[22]). […]

Setting [1] is: E278A, 50 µM CQ, 1 h, mean ± SEM.
The mark [2] stands for this setting: E207S, 50 µM CQ, 1 h, mean ± SEM.

Structures are written as SMILES. Values joined by “and” are separate entries in the source; they are usually repeats but may differ in a detail not shown here. Equal values may be shown once.

In the case of `CCN(CC)CCCC(C)Nc1ccnc2cc(Cl)ccc12` (centres unmarked) [CQ, chloroquine], the entries for the “Activity at pH 4.5” value on PfCRT variant E278A (setting [1]) and in the experiment on PfCRT variant E207S (setting [2]) were 1.17 ± 0.07 pmol h-1 oocyte-1 and 2.94 ± 0.21 pmol h-1 oocyte-1, respectively. Besides, the “Activity at pH 6.0” value on PfCRT variant E278A (setting [1]) turned out to be 2.21 ± 0.24 pmol h-1 oocyte-1; with PfCRT variant E207S (setting [2]) it was 3.07 ± 0.23 pmol h-1 oocyte-1. The R-value at PfCRT variant E278A (E278A, CQ transport at pH 4.5 / pH 6.0) came to 0.56 ± 0.10; with PfCRT variant E207S (E207S, CQ transport at pH 4.5 / pH 6.0) it was 0.96 ± 0.01. Further, the “E278A transport activity pH 4.5” value at PfCRT variant E278A (pH 4.5, single replicates, Fig 1d left) was 1.19 pmol oocyte-1 h-1 and 1.00 pmol oocyte-1 h-1 and 1.31 pmol oocyte-1 h-1. The “E278A transport activity pH 6.0” value at PfCRT variant E278A (pH 6.0, single replicates, Fig 1d left) was 2.40 pmol oocyte-1 h-1 and 2.59 pmol oocyte-1 h-1 and 1.63 pmol oocyte-1 h-1. Moreover, the “E207S transport activity pH 4.5” value in the experiment with PfCRT variant E207S (pH 4.5, individual replicates, Fig 6b) is 3.45 pmol oocyte-1 h-1 and 2.79 pmol oocyte-1 h-1 and 2.59 pmol oocyte-1 h-1. In addition, in the experiment on PfCRT variant E207S (pH 6.0, individual replicates, Fig 6b), the “E207S transport activity pH 6.0” value was 3.59 pmol oocyte-1 h-1 and 2.98 pmol oocyte-1 h-1 and 2.63 pmol oocyte-1 h-1. Also, in the experiment on PfCRT variant E207S (ratio of activity pH 4.5 / pH 6.0), the “E207S R-value” is 0.96 and 0.94 and 0.98.
